# Patent US20060256599A1, “Database of electronically profiled cells and methods for generating and using same” (priority 2005, published 2006)
# Columns and labels:
# [1] = tested on: cells in culture; assay: effect of chemotherapeutic agents on cellular conductance and cell number; type: cell-based; settings: 100 ng in each ml of media, DMEM + 10% serum, FIG. 6
# Protocol: FIG. 6 depicts the effect of chemotherapeutic agents on cellular conductance and cell number.
# Cells were seeding at a density of 1.0E+5 in 2 ml of DMEM with 10% FBS. The cells were grown and cultured for 24 hours. On day 2 eight wells were counted in a Coulter type counter after harvesting by trypsinization for initial cell count. Additional wells containing cells were examined to confirm cell viability and health by phase microscopy. The media as then aspirated and wells were filled with DMEM+10% serum (control) or DMEM+10% serum containing various concentrations of chemotherapeutic agent (e.g. Methotrexate.). The dose was 100 ng in each ml of media.
# [2] = tested on: rat primary neonatal explants; settings: in vitro; from King et al., Genentech paper; cited from earlier work
Molecule,cell number ([1]; Coulter type counter),cell conductance [1],metabolic activity (heart beats) increased [2] [%]
CN(Cc1cnc2nc(N)nc(N)c2n1)c1ccc(C(=O)N[C@@H](CCC(=O)O)C(=O)O)cc1 [Methotrexate],decreased cell number,decrease in cell conductance,
"CNC[C@H](O)c1cccc(O)c1 [PE, Phenylephrine]",,,84
leukemia inhibitory factor [LIF],,,125
prostaglandin F2alpha [PGF],,,54
